For 60 molecules, viability results are on record in PMC12040169 (PLOS Biology, 2025).

This data set is described as follows: in vitro. The conditions noted are these: human, hela cells, % viability.
As to `C=C(C)CN1CCN(C(=O)c2ccnc3ccc(Cl)cc23)CC1` [CBK282617], the viability at 28.5 h, 10 µM amounted to 111%.
For the molecule `CC(C)(C)NC(=O)CCn1c(-c2ccncc2)cc2cccnc21` [CBK282620], the viability at 28.5 h, 10 µM was determined as 95.4%.
`Cc1cc2cc(C(=O)NCC3(N(C)C)CCN(C)CC3)ccc2o1` [CBK282623]: the viability at 28.5 h, 10 µM was 90.2%.
Then `Cc1cc2cc(C(=O)NCCCN3Cc4ccccc4C3)ccc2o1` [CBK282624], with 97.4%; and `C=C(C)CN1CCN(C(=O)c2c(C)oc3ccc(O)cc23)CC1` [CBK282626], with 95%; and `Cc1oc2ccc(O)cc2c1C(=O)N(C)C(C)Cc1ccccn1` (stereo not drawn) [CBK282627], with 96.2%.
The value for `Cc1nc2ccc(C(=O)NC(C)(C)CN3CCCC(C)C3)cc2[nH]1` (stereo not drawn) [CBK282629] was 85.3%; that for `CS(=O)(=O)N1CC=CC1C(=O)NCCCc1ccc(F)cc1` (stereo not drawn) [CBK282631] was 85.5%.
`COC(=O)CCn1c(-c2ccccn2)cc2cccnc21` [CBK282634]: the viability at 28.5 h, 10 µM was found to be 89.8%.
Then `C=CCC1(CC=C)CCN1C(=O)c1sc2ncn(C)c(=O)c2c1C` [CBK282637], with 84.7%; and `C=C(C)CN1CCN(C(=O)C2Cc3cc(Cl)ccc3O2)CC1` (stereo not drawn) [CBK282639], with 89%.
The value for `CN(CCN1CCCCC1)C(=O)C1Cc2cc(Cl)ccc2O1` (stereo not drawn) [CBK282640] was 95.4%; that for `CC(C)N1CCC(CNC(=O)c2cccc(N3CCCC3=O)c2)CC1` [CBK282641] was 104%; that for `Cc1ccn(CCNC(=O)c2cccc(N3CCCC3=O)c2)n1` [CBK282642] was 105%.
For the molecule `CC(C)c1cc(C(=O)NC(C)(C)CN2CCCCC2C)n(C)n1` (stereo not drawn) [CBK282644], the viability at 28.5 h, 10 µM stood at 96.4%.
The value for `CN(C)CC(C)(C)CN1C2CCC1CC(O)(c1ccccc1F)C2` (stereo not drawn) [CBK282648] was 94.4%; that for `Cn1cncc1CN1C2CCC1CC(O)(c1ccccc1F)C2` (stereo not drawn) [CBK282649] was 107%.
Then `CCC(CC(=O)NCc1c(C)n[nH]c1C)c1c[nH]c2ccccc12` (stereo not drawn) [CBK282651], with 87.1%.
Then `O=C(NCCCc1ccccn1)c1cc(-c2cccs2)no1` [CBK282652], with 63.9%; and `Cc1cccc(-c2noc(C)c2C(=O)NCCn2ccc(C)n2)c1` [CBK282656], with 96.4%.
On to `CCC(NC(=O)CCN1Cc2ccccc2C1=O)c1ccc(F)cc1` (stereo not drawn) [CBK282657], for which the viability at 28.5 h, 10 µM was determined as 104%.
As to `CCOc1ccc2[nH]c3c(c2c1)CN(C(=O)C1(C)CCCO1)CC3` (stereo not drawn) [CBK282659], the viability at 28.5 h, 10 µM turned out to be 86.2%.
The value for `CC1(C(=O)N2CCc3onc(-c4ccccc4F)c3C2)CCCO1` (stereo not drawn) [CBK282660] was 88.1%; that for `C=CCC1(CC=C)CCN1C(=O)Cc1c(C)nc(SC)[nH]c1=O` [CBK282661] was 86.9%.
Then `CCn1cc(CN2C3CCC2CC(O)(c2ccccc2F)C3)cn1` (stereo not drawn) [CBK282662], with 86.5%; and `CCn1ncc(CN2C3CCC2CC(O)(c2ccccc2F)C3)c1C` (stereo not drawn) [CBK282663], with 85%.
Then `CCn1cc(CC(=O)NCCn2ccc(C)n2)c2ccccc21` [CBK282670], with 96.7%.
In the case of `CCc1cccc2c(CC(=O)N(C)CCN(C)C)c(C)[nH]c12` [CBK282673], the viability at 28.5 h, 10 µM was 102%.
Then `Cc1ccc2[nH]c(C)c(CC(=O)N(C)CCN(C)C)c2c1` [CBK282674], with 105%; and `Cc1nn(CCC(=O)NC(C)(C)CN2CCCC(C)C2)c(C)c1C` (stereo not drawn) [CBK282676], with 91.4%.
Then `O=C(CSc1nccc2ccccc12)NC1CCCOC1` (stereo not drawn) [CBK282677], with 85.2%; and `Cc1ccn(CCNC(=O)CSc2nccc3ccccc23)n1` [CBK282678], with 104%; and `Cc1ccn(CCNC(=O)c2cc(-c3cccs3)no2)n1` [CBK282679], with 78.9%.
Then `CN(C)[C@@H]1CN(C(=O)C2CC2)C[C@H]1c1cn(C)c2ccccc12` [CBK282681], with 110%; and `CC(C)N(C(=O)Cn1c(-c2ccco2)cc2cccnc21)C(C)C` [CBK282682], with 99.4%; and `CC(C)c1cc(C(=O)NCCN2CCc3ccccc32)n(C)n1` [CBK282685], with 86.7%.
For `CC(C)N1CCCC(CNC(=O)C2Cc3cc(Cl)ccc3O2)C1` (stereo not drawn) [CBK282686], the viability at 28.5 h, 10 µM was determined as 92.8%.
The value for `CC1CCCCN1C(=O)CCn1c(-c2ccncc2)cc2cccnc21` (stereo not drawn) [CBK282689] was 105%.
Take `Cc1oc2ccc(O)cc2c1C(=O)N(C)CCOc1ccccc1` [CBK282696]: the viability at 28.5 h, 10 µM stood at 111%.
For `CCOc1ccc2[nH]c(C(=O)N(C)CCN3CCCCC3)c(C)c2c1` [CBK282699], the viability at 28.5 h, 10 µM is 86.3%.
Take `CC(C)C(NC(=O)C1C=CCN1S(C)(=O)=O)c1cccs1` (stereo not drawn) [CBK282701]: the viability at 28.5 h, 10 µM worked out at 82.5%.
The value for `CC(=O)N1c2ccc(NC(=O)C3(C)CCCO3)cc2CC1C` (stereo not drawn) [CBK282702] was 98.5%; that for `O=C(Cc1ccc2c(c1)CCC2)N1CCCCC1CN1CCOCC1` (stereo not drawn) [CBK282704] was 88.8%; that for `CC(C(=O)N1CCC(c2cc3cccnc3[nH]2)CC1)N1CCCC1=O` (stereo not drawn) [CBK282705] was 105%.
Then `CCC(C(=O)NCC1CCCN(C(C)C)C1)n1cnc2ccccc21` (stereo not drawn) [CBK282706], with 88.6%; and `CC(NC(=O)c1cccc(-n2cnnc2)c1)c1ccc2c(c1)CCC2` (stereo not drawn) [CBK282707], with 91.9%; and `Cc1ccn(CCNC(=O)Cn2c3c(c4ccccc42)CCC3)n1` [CBK282708], with 86.5%.
On to `O=C(NCCCc1ccc(F)cc1)c1cccc(-n2cnnc2)c1` [CBK282713], for which the viability at 28.5 h, 10 µM came to 102%.
Consider `O=C1CC2(CCNCC2)Oc2c1ccc1ccccc21` [CBK282714], for which the viability at 28.5 h, 10 µM came out at 93%.
Then `Cc1ccc2c(c1)C(=O)CC1(CCC3C(C(=O)NC4CCCC4)C31)O2` (stereo not drawn) [CBK282716], with 83.4%.
As for `c1csc(-c2cc3cccnc3n2CCN2CCOCC2)c1` [CBK282718], the viability at 28.5 h, 10 µM was 80.5%.
The value for `C=CCNC(=O)Cn1c(-c2ccco2)cc2cccnc21` [CBK282719] was 82.6%; that for `COCCNC(=O)Cn1c(-c2ccco2)cc2cccnc21` [CBK282720] was 80.6%.
On to `Clc1ccc(C2(N3CCC(N4CCOCC4)CC3)CC2)cc1` [CBK282722], for which the viability at 28.5 h, 10 µM stood at 90.8%.
As to `Cc1[nH]c2c(C)cccc2c1CC(=O)N(C)CCN(C)C` [CBK282724], the viability at 28.5 h, 10 µM stood at 82.6%.
The value for `Cc1nc(-c2ccccc2)c(CC(=O)N(C)CCN(C)C)s1` [CBK282725] was 83.3%.
`Cc1[nH]c2ccc(F)cc2c1CC(=O)N(C)CCN(C)C` [CBK282726]: the viability at 28.5 h, 10 µM was found to be 84.1%.
Then `Cc1cc(C)c2[nH]c(CC(=O)N(C)CCN(C)C)nc2c1` [CBK282727], with 74.3%.
The value for `CN(CCN1CCCCC1)C(=O)C1CC(=O)Nc2ccccc21` (stereo not drawn) [CBK282729] was 105%; that for `Cc1cc(C)c2[nH]c(C)c(CC(=O)N(C)CCN(C)C)c2c1` [CBK282731] was 82.5%.

A word on the viability: it is a read-out of living cells in per cent, often relative to untreated cells.
